The record followed here is PMC5118709, “Identification of Polo-like kinase 1 interaction inhibitors using a novel cell-based assay” (Scientific Reports, 2016).

Read-outs that look alike come from different tables or passages of the source.

A word on the IC50: it is the concentration at which inhibition is half-maximal.

The subject of test [1] is HeLa cells. Put plainly: mitotic defect phenotypes by immunofluorescence. Particulars: 10 nM, 7 h. Format: cell-based. The method, then:
HeLa cells were treated with these compounds along with the known PBD inhibitors PPG, TQ, Poloxin and the KD inhibitor BI2536 as controls, and then stained against α-Tubulin, pericentrin (a centrosome marker) and DNA (Fig. 2D). In all cases, there was a marked increase in the frequency of disorganized spindles compared with DMSO-treated control cells. This is expected as Plk1 plays multiple roles in spindle assembly and maintenance. […] Cpd 69, an analog of compound 122, induced a similar phenotype at lower concentrations (data not shown). This phenotype was not seen after treatment with BI2536.
For the mitotic defect phenotypes, 25 200 HeLa cells were plated on poly-L-lysine coated round cover slips in 24-well plates. The day after, cells were treated for 7 hours, and then washed with PHEM buffer at 37 °C before fixation in PHEM buffer containing 4% formaldehyde for 20 minutes at 37 °C. Cells were washed three times with TBS-tween 0.1% and plate was kept overnight at 4 °C. Next steps were followed as previously described except that coverslips were incubated in a dark wet chamber with antibodies. Anti-pericentrin (diluted 1:1000; Abcam), anti-α-tubulin DM1A (diluted 1:500; Sigma-Aldrich), Alexa Fluor 488 anti-rabbit and Texas-Red anti-mouse (diluted 1:200; Invitrogen) were used. Coverslips were mounted on slide using Vectashield media containing DAPI (Vector Laboratories).
Images shown in Fig. 2D were acquired on an AxioImager microscope (Carl Zeiss) with a 100x oil objective (NA 1.4 DICIII) and an AxioCam HRM camera (Carl Zeiss) using AxioVision software (Carl Zeiss).

For test [2], the target named is GST-PBD367-603 of Plk1 (Homo sapiens, UniProt P53350). Nature of the test: fluorescence polarization assay PBD-phosphopeptide. The conditions noted are these: for activity in the FP assay: SAR. (In fluorescence polarisation assays a small probe gives low polarisation when free and higher when bound to something large.)
Chain of GST-PBD367-603 of Plk1 (P53350 367-603): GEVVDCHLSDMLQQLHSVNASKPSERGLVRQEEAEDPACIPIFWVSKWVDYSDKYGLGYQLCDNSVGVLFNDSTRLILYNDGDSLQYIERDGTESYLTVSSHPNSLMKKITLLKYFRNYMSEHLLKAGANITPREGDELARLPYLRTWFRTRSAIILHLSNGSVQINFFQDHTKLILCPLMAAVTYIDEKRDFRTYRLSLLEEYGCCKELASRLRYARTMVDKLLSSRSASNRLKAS

On to `CC[C@@H]1C(=O)N(C)c2cnc(Nc3ccc(C(=O)NC4CCN(C)CC4)cc3OC)nc2N1C1CCCC1` [BI2536], for which, in test [1], the “2 > pericentrin foci (percentage of cells)” value stood at 3 ± 2% and the “Disorganized spindles (percentage of cells)” value amounted to 55 ± 8%. As to `Cc1ccc(C(=O)OCCS(=O)(=O)c2ccc(C(F)(F)F)cn2)cc1` [Cpd 123], the IC50 in test [2] (read-out: FP - IC50, Table S3) was 7.2 µM. Regarding `O=C(OCCS(=O)(=O)c1ccccn1)c1ccccc1` [Cpd 124], the IC50 in test [2] (FP - IC50 (μM), Table S3) was 68.6 ± 18.5 µM; in test [2] (IC50 in FP, GST-PBD367-603 38 nM, 1 h pre-incubation, FITC-phosphopeptide 10 nM, Fig. 4C) it was 56 µM.

As for `O=C(OCCS(=O)(=O)c1ccc(C(F)(F)F)cn1)c1cccc(Cl)c1` [Cpd 125], the IC50 in test [2] (read-out: FP - IC50, Table S3) stood at 11.9 ± 7.2 µM. Still for that read-out and setting: the same measure for `O=C(OCCS(=O)(=O)c1ncccc1Cl)c1cccc(Cl)c1` [Cpd 126]: 4.3 µM; for `O=C(OCCS(=O)(=O)c1ccccn1)c1cccc(Cl)c1` [Cpd 127]: 187 µM; for `O=C(OCCS(=O)(=O)c1ncccc1C(F)(F)F)c1cccc(Cl)c1` [Cpd 128]: 8.4 µM.

For the molecule `O=C(OCCS(=O)(=O)c1ccc(C(F)(F)F)cn1)c1ccccc1` [Cpd 129], the IC50 in test [2] (read-out: FP - IC50, Table S3) was determined as 8.5 µM. On the same count and under the same terms, the same measure for `O=C(OCCS(=O)(=O)c1ccc(C(F)(F)F)cn1)c1ccc(Cl)c(Cl)c1` [Cpd 130]: 7.8 µM; for `O=C(OCCS(=O)(=O)c1ccc(Cl)cn1)c1cccc(Cl)c1` [Cpd 131]: 70.5 µM.

Turning to `CC(C)(C)c1ccc(C(=O)OCCS(=O)(=O)c2ccc(C(F)(F)F)cn2)cc1` [Cpd 132], in test [2] (read-out: FP - IC50, Table S3), the IC50 was 26.1 µM. The same measure, in the same setting: the same measure for `O=C(OCCS(=O)(=O)c1ccc([N+](=O)[O-])cn1)c1cccc(Cl)c1` [Cpd 133]: 5.4 µM. In the case of `O=S(=O)(CC(O)COc1ccccc1)c1ccccn1` (centres unmarked) [Cpd 136], the “FP - IC50 (μM)” value in test [2] (Table S3) is given as “No inhibition”. Same read-out and setting: the same measure for `Cc1ccc(S(=O)(=O)CCC(=O)Nc2cccc(Cl)c2)cc1` [Cpd 137]: “No inhibition”; for `Cc1ccc(S(=O)(=O)CCC(=O)OCc2ccc(Cl)c(Cl)c2)cc1` [Cpd 138]: “No inhibition”; for `O=[N+]([O-])c1cccc(S(=O)(=O)NCCOc2cccc(Cl)c2Cl)c1` [Cpd 139]: “No inhibition”. The same measure, in the same setting: the same measure for `Cc1c(Cl)cccc1NC(=O)CCS(=O)(=O)c1ccccc1` [Cpd 140]: “No inhibition”. Still for that read-out and setting: the same measure for `CC(CC(=O)Nc1ccc(Cl)cc1)S(=O)(=O)c1ccc(Cl)cc1` (centres unmarked) [Cpd 141]: “No inhibition”. In the case of `O=C(NCCS(=O)(=O)c1ccc(C(F)(F)F)cn1)c1ccc(Cl)cc1` [Cpd 142], the “activity in the FP assay” value in test [2] is reported as “activity was abolished”. In addition, in test [2] (Table S3), the “FP - IC50 (μM)” value is “No inhibition”. Consider `O=C(CS(=O)(=O)c1cc(C(F)(F)F)cc(C(F)(F)F)c1)Nc1ccccc1F` [Cpd 143], for which, in test [2] (Table S3), the “FP - IC50 (μM)” value was “No inhibition”.

For `O=C(CS(=O)(=O)c1ccc(C(F)(F)F)cn1)NNC(=O)c1ccccc1` [Cpd 144], the “FP - IC50 (μM)” value in test [2] (Table S3) was “No inhibition”. On the same count and under the same terms, the same measure for `Cc1ccc(NC(=O)CCS(=O)(=O)c2ccccc2)c(Br)c1` [Cpd 145]: “No inhibition”; for `Cc1cc(C(F)(F)F)cc(SCCO)n1` [Cpd 146, 2-((6-methyl-4-(trifluoromethyl)pyridin-2-yl)thio) ethanol]: “No inhibition”.

In the case of `Cc1cc(C(F)(F)F)cc(SCCOC(=O)c2cccc(Cl)c2)n1` [Cpd 147, 2-((6-methyl-4-(trifluoromethyl)pyridin-2-yl)thio)ethyl 3-chlorobenzoate], the “activity in the FP assay” value in test [2] is reported as “activity was abolished”. Moreover, in test [2] (Table S3), the “FP - IC50 (μM)” value is on record as “No inhibition”. For the molecule `Cc1cc(C(F)(F)F)cc([S+]([O-])CCOC(=O)c2cccc(Cl)c2)n1` (centres unmarked) [Cpd 148, 2-((6-methyl-4-(trifluoromethyl)pyridin-2-yl)sulfinyl)ethyl 3-chlorobenzoate], the “activity in the FP assay” value in test [2] is listed as “activity was abolished”. Further, the “FP - IC50 (μM)” value in test [2] (Table S3) is “No inhibition”. Consider `Cc1cc(C(F)(F)F)cc(SCCOC(=O)c2cccc(OC(F)(F)F)c2)n1` [Cpd 149], for which, in test [2] (Table S3), the “FP - IC50 (μM)” value is listed as “No inhibition”.

For the molecule `Cc1cccc(C(=O)OCCSc2cc(C(F)(F)F)cc(C)n2)c1` [Cpd 150], the “FP - IC50 (μM)” value in test [2] (Table S3) is on record as “No inhibition”. In the case of `Cc1cc(C(F)(F)F)cc(S(=O)(=O)CCOC(=O)c2cccc(OC(F)(F)F)c2)n1` [Cpd 151], the IC50 in test [2] (read-out: FP - IC50, Table S3) came to 41.7 µM. On the same count and under the same terms, the same measure for `Cc1cccc(C(=O)OCCS(=O)(=O)c2cc(C(F)(F)F)cc(C)n2)c1` [Cpd 152]: 54.4 µM. Turning to `Cc1cc(C(F)(F)F)cc(SCCOC(=O)c2cccc(Br)c2)n1` [Cpd 153], the “FP - IC50 (μM)” value in test [2] (Table S3) is recorded as “No inhibition”. As for `Cc1cc(C(F)(F)F)cc(S(=O)(=O)CCOC(=O)c2cccc(Br)c2)n1` [Cpd 154], in test [2] (read-out: FP - IC50, Table S3), the half-inhibitory concentration (IC50) turned out to be 36.8 µM. Consider `Cc1cc(C(F)(F)F)cc(SCCOC(=O)c2cc(Cl)cc(Cl)c2)n1` [Cpd 155], for which the “FP - IC50 (μM)” value in test [2] (Table S3) is listed as “No inhibition”. In the case of `Cc1cc(C(F)(F)F)cc(S(=O)(=O)CCOC(=O)c2cc(Cl)cc(Cl)c2)n1` [Cpd 156], the IC50 in test [2] (read-out: FP - IC50, Table S3) amounted to 48.1 µM. For `Cc1cc(C(F)(F)F)cc(SCCOCc2cccc(Cl)c2)n1` [Cpd 157], in test [2] (Table S3), the “FP - IC50 (μM)” value is “No inhibition”. As for `Cc1cc(C(F)(F)F)cc(S(=O)(=O)CCO)n1` [Cpd 158, 2-((6-methyl-4-(trifluoromethyl)pyridin-2-yl)sulfonyl)ethanol], the “activity in the FP assay” value in test [2] was “completely abrogated activity”. Moreover, the “FP - IC50 (μM)” value in test [2] (Table S3) is “No inhibition”. In the case of `Cc1cc(C(F)(F)F)cc(S(=O)(=O)CCOCc2cccc(Cl)c2)n1` [Cpd 159], the “FP - IC50 (μM)” value in test [2] (Table S3) is on record as “No inhibition”.

On to `Cc1cc(C(F)(F)F)cc(S(=O)(=O)CCOC(=O)C2CCCCC2)n1` [Cpd 160], for which the IC50 in test [2] (read-out: FP - IC50, Table S3) is 75 µM.

For `Cc1cc(C(F)(F)F)cc(S(=O)(=O)CCOS(C)(=O)=O)n1` [Cpd 164, 2-((6-methyl-4-(trifluoromethyl)pyridin-2-yl)sulfonyl) ethyl methanesulfonate], the IC50 in test [2] (read-out: FP - IC50, Table S3) turned out to be 6 µM. As for `Cc1cc(C(F)(F)F)cc(SCCOC(=O)C2CCCCC2)n1` [Cpd 168], the “FP - IC50 (μM)” value in test [2] (Table S3) is “No inhibition”. As for `CCS(=O)(=O)c1cc(C(F)(F)F)cc(C)n1` [Cpd 169, 2-(ethylsulfonyl)-6-methyl-4-(trifluoromethyl)pyridine], the “activity in the FP assay” value in test [2] is “completely abrogated activity”. In addition, the “FP - IC50 (μM)” value in test [2] (Table S3) is “No inhibition”.
